Here are results for one compound from patent US6423739B1, “Method for aiding cerebral recovery following neurodegeneration” (Daiichi Pharmaceutical Co., Ltd., priority 2000, dated 2002).

Test [1] deals with hippocampal and cortical rat embryo neurons. The test can be described thus: Neurite outgrowth in primary cultures of hippocampal and cortical rat embryo neurons. It counts as cell-based.
Test [2] deals with post-stroke patients. The test can be described thus: Controlled clinical trial against placebo, symptom scale measuring Activities of Daily Living. It counts as in vivo, human. The text has this: The activity of nefiracetam to improve ADL in post-stroke patients has been discovered during a controlled clinical trial against placebo. The compound has been administered orally to 32 post-stroke patients within six months after the event whilst, concurrently, 27 patients received placebo. The two groups of patients were followed during at least 8 weeks and followed up at the end of week 4 and at the end of week 8 on a symptom scale measuring Activities of Daily Living. […] Among the above 59 patients, 19 received nefiracetam and 10 received placebo within three months after stroke. […] The difference was significant (p=0.035, χ^2 test). […] Thus nefiracetam, when administered early after the event, appears to be the first drug which is able to induce a recovery from stroke or, at least, to improve the recovery from stroke.

Test [3] deals with rats with cerebral embolism. The test can be described thus: Watermaze spatial learning and retention test in rats with cerebral embolism. It counts as in vivo, rat. From the text:
The mechanism of action of nefiracetam for this indication, which is not bound to the nootropic activity of the drug, is unknown, but it is believed that its surprising effect in improving ADL of a patient after a stroke or in the recovery of, or at least in improving the recovery of, a post-stroke patient, is due to a true brain repair. This assumption is confirmed by the effect of nefiracetam on spatial learning and retention in rats with cerebral embolism, treated for 9 days with nefiracetam or vehicle, starting within 24 hours of embolization.
In male Wistar rats weighing 190-220 g a total of 700 microspheres (48 μm in diameter) were injected into the right common carotid artery of each animal, whereby a quasi-immediate embolism occurs. The embolized animals were randomly divided into 2 groups, each of 13 animals with same neurological deficit, designated as “Control” (embolism plus Vehicle), or “Nefiracetam” (embolism plus nefiracetam 10 mg/kg/day). In addition, a group of 13 “Normal (Sham)” non-embolized animals were used. The administration of nefiracetam or of its vehicle started within the same day of embolization and treatment lasted 9 days. Seven days after embolization, the embolized rats were submitted to a watermaze test, said watermaze being adapted from the Morris water task. The time taken to find the platform (latency) was determined. […]

In test [4] the test system is patients after a stroke (cerebral infarction or cerebral hemorrhage). The note with it: post-stroke patients, Ohtomo et al. 1994; cited from earlier work.

`Cc1cccc(C)c1NC(=O)CN1CCCC1=O` [Nefiracetam, N-(2,6-dimethylphenyl)-2-(2-oxo-1-pyrrolidinyl)acetamide]: the “Neurotrophic effect: neurite outgrowth” value in test [1] (concentrations of 0.1, 1, 10 and 100 micromoles/l) is recorded as “significantly increasing neurite outgrowth”. Also, the “Neurotrophic effect in combination with bFGF” value in test [1] (hippocampal neurons) was “potentiated by bFGF”. Moreover, in test [2] (19 patients who received nefiracetam within three months after stroke, p=0.035 vs placebo, chi2 test), the “Patients showing a moderate or remarkable improvement (Activities of Daily Living)” value is recorded as approximately 70%. In test [2] (early treatment after stroke), the Intellectual dysfunction result was “dramatically improved in a high percent of nefiracetam-treated patients”; the “Neurological signs and incontinence” value was “tends to improve”. Moreover, the “Improvement on symptom scale measuring Activities of Daily Living” value in test [2] (oral, 32 post-stroke patients treated within six months after the event, followed at week 4 and week 8) was “moderate or remarkable improvement”. Further, in test [3] (day 17 after embolization), the “Persistence of the effect after washout” value is “maintained even after washout”. The “Difference in learning ability versus vehicle-treated (control) brain-injured animals” value in test [3] (days 7-9 post-embolism, t-test, p<0.05 compared to control) is “statistically significant”. In addition, the “Activities of daily living, nefiracetam vs placebo group” value in test [4] is recorded as “no significant difference between the two groups”.
